The results in this text go back to patent US20160016929A1, “PRO-DRUG COMPOUNDS” (PROXIMAGEN LIMITED, priority 2013, published 2016).

Data set [1] is described as follows: Solubility in aqueous solutions (Table 3). Particulars: aqueous solution. The data set is classed as physicochemical. Here is the method: The skilled person understands that the pH of the gastrointestinal tract changes along its length. […] For more detail see, for example, Measurement of gastrointestinal pH profiles in normal ambulant human subjects, Gut. […] Improved solubility is expected to result in improved absorption, and therefore improved oral bioavailability.
In an embodiment prodrugs of the invention are administered intravenously. High prodrug solubility is advantageous in order to reduce the volume of solution administered to the patient, and to reduce the risk of damage to the circulatory system. Solubility of >10 mg/mL is preferred.

A further data set deals with T1, hERG K+ channel (Homo sapiens, UniProt Q12809).
T1 construct: a Chinese Hamster Lung cell line stably expressing the full length hERG channel; expressed in transfected cells; host or cells: Chinese Hamster Lung cell line
T1 sequence (Q12809 whole entry): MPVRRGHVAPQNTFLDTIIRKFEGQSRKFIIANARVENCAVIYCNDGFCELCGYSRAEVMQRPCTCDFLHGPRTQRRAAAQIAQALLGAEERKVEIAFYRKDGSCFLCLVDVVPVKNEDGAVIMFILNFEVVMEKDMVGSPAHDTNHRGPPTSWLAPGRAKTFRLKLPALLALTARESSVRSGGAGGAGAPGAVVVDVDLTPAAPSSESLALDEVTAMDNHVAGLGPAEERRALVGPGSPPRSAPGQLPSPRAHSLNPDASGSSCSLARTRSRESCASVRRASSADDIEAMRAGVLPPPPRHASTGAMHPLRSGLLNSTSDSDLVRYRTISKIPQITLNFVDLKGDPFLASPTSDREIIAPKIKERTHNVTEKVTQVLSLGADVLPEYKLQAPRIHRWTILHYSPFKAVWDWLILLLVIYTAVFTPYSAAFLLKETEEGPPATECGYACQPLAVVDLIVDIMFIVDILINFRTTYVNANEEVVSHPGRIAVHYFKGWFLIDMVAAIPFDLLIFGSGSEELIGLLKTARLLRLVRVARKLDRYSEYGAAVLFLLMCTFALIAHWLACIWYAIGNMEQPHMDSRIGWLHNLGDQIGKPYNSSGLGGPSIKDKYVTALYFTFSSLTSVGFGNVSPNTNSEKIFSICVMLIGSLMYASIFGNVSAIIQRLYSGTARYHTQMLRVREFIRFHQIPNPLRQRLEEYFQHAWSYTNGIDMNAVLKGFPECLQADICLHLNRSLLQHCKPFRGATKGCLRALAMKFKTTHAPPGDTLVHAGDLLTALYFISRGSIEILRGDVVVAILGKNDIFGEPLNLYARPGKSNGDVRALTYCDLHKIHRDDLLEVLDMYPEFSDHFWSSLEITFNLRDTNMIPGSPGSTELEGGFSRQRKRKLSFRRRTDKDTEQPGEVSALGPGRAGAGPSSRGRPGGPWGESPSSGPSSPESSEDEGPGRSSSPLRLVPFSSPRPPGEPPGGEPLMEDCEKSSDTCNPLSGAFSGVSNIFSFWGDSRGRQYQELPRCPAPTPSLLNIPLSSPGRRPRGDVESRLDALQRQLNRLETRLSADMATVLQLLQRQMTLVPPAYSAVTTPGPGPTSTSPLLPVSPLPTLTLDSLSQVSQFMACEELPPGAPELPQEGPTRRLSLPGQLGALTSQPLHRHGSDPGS
The data set is described as follows: hERG assay, IonWorks patch clamp electrophysiology. It is filed as cell-based. The following applies: human, pH 7.3; 11 uM; Chinese Hamster Lung cell line stably expressing hERG. Here is the method: Compounds of the invention were tested for inhibition of the human ether a go-go related gene (hERG) K^+ channel using IonWorks patch clamp electrophysiology. 8 Point concentration-response curves were generated on two occasions using 3-fold serial dilutions from the maximum assay concentration (33 uM). Electrophysiological recordings were made from a Chinese Hamster Lung cell line stably expressing the full length hERG channel. Single cell ion currents were measured in the perforated patch clamp configuration (100 ug/mL amphoterocin) at room temperature using an IonWorks Quattro instrument. The internal solution contained 140 mM KCl, 1 mM MgCl2, 1 mM EGTA and 20 mM HEPES and was buffered to pH 7.3. The external solution contained 138 mM NaCl, 2.7 mM KCl, 0.9 mM CaCl2, 0.5 mM MgCl2, 8 mM Na2HPO4 and 1.5 mM KH2PO4, and was buffered to pH 7.3. Cells were clamped at a holding potential of […] for 30 s and then stepped to +40 mV for 1 s. This was followed by a hyperpolarising step of 1 s to […] to evoke the hERG tail current. This sequence was repeated 5 times at a frequency of 0.25 Hz. Currents were measured from the tail step at the 5th pulse, and referenced to the holding current. Compounds were incubated for 6-7 min prior to a second measurement of the hERG signal using an identical pulse train. A minimum of 17 cells were required for each pIC50 curve fit. A control compound (quinidine) was used.

A short description of data set [2]: Pharmacokinetics: exposure of tonabersat in plasma after oral or intravenous dosing of prodrugs to rats. The data set is classed as in vivo. Particulars: fasted male Sprague Dawley rats. Here is the method:
Example Prodrugs of the claimed invention were dosed either intravenously or orally to fasted male Sprague Dawley rats. The rats underwent surgery for jugular vein cannulation 48 h prior to dosing. Following dosing, 0.25 mL blood samples were taken via the cannulae at 0, 5, 10, 20, 30, 45, 60, 120, 240 & 360 min in EDTA coated tubes. Tubes were spun at 13,000 rpm for 4 min and 100 ul of supernatant taken immediately and stored at −80° C. prior to analysis. Plasma samples were analysed by LC-MS/MS following extraction by protein precipitation, and levels of parent prodrug and tonabersat were measured by MRM (Multiple Reaction Monitoring) analysis against an extracted calibration curve of plasma samples spiked with the Example prodrug and tonabersat.
The exposure of tonabersat in plasma following dosing of the prodrugs of the invention was compared directly to the exposure observed following dosing of an equimolar amount of tonabersat under analogous assay conditions (5.00 mg/kg oral dosing or 0.78 mg/kg intravenous dosing). In an embodiment prodrugs of the present invention have >10% exposure of tonabersat obtained following either oral or intravenous dosing of the prodrug to a human or animal subject, compared to the exposure obtained from dosing an equimolar amount of tonabersat itself. In an embodiment the exposure of tonabersat following dosing of the prodrugs is >20%, or >30%, or >40%, or >50%, or preferably >70% compared to the exposure obtained from dosing an equimolar amount of tonabersat itself.

In brackets after ≈: the same amount, converted by molar mass. A value given as a limit tells only on which side of the number the result lay.

Usually solubility stands for the concentration that dissolves in the medium under given conditions. The low end stands for a poorly soluble substance, the high end for a readily soluble substance. As a reminder, the inhibition is the share of the control response that was lost under treatment. High values mean strong suppression, low ones little suppression.

Compound `CC(=O)c1ccc2c(c1)[C@H](NC(=O)c1ccc(F)c(Cl)c1)[C@H](OC(=O)OCC[N+](C)(C)C)C(C)(C)O2.[I-]` [Example 2, (3S,4S)-6-Acetyl-4-[(3-chloro-4-fluorobenzene)amido]-2,2-dimethyl-3,4-dihydro-2H-1-benzopyran-3-yl 2-(trimethylazaniumyl)ethyl carbonate iodide] showed a solubility in data set [1] (aqueous buffer, pH not given) of less than 1000 µg/mL.
In the case of `CCN(CC)CCOC(=O)O[C@H]1[C@@H](NC(=O)c2ccc(F)c(Cl)c2)c2cc(C(C)=O)ccc2OC1(C)C` [Example 3, (3S,4S)-6-Acetyl-4-[(3-chloro-4-fluorobenzene)amido]-2,2-dimethyl-3,4-dihydro-2H-1-benzopyran-3-yl 2-(diethylamino)ethyl carbonate], the inhibition at 11 µM against hERG K+ channel is 20%. In data set [1] (aqueous buffer, pH not given), the solubility is less than 1000 µg/mL.
Take `CC(=O)c1ccc2c(c1)[C@H](NC(=O)c1ccc(F)c(Cl)c1)[C@H](OC(=O)OC[C@H](N)C(=O)O)C(C)(C)O2.Cl` [Example 5, (2S)-3-[({[(3S,4S)-6-Acetyl-4-[(3-chloro-4-fluorobenzene)amido]-2,2-dimethyl-3,4-dihydro-2H-1-benzopyran-3-yl]oxy}carbonyl)oxy]-2-aminopropanoic acid hydrochloride]: the “% exposure of tonabersat after dosing the prodrugs of the invention via: Intravenous dosing (iv)” value in data set [2] (compared to equimolar amount of tonabersat (0.78 mg/kg intravenous dosing)) was determined as 37%. Further, in data set [2] (compared to equimolar amount of tonabersat (5.00 mg/kg oral dosing)), the “% exposure of tonabersat after dosing the prodrugs of the invention via: Oral dosing (po)” value was 39%.
Consider `CC(=O)c1ccc2c(c1)[C@H](NC(=O)c1ccc(F)c(Cl)c1)[C@H](OC(=O)NCC(=O)O)C(C)(C)O2` [Example 7, 2-[({[(3S,4S)-6-Acetyl-4-[(3-chloro-4-fluorobenzene)amido]-2,2-dimethyl-3,4-dihydro-2H-1-benzopyran-3-yl]oxy}carbonyl)amino]acetic acid], for which the solubility in data set [1] (pH 8.8, aqueous buffer) was less than 1000 µg/mL.
Regarding `CC(=O)c1ccc2c(c1)[C@H](NC(=O)c1ccc(F)c(Cl)c1)[C@H](OC(=O)CNC(=O)[C@@H]1CCCN1)C(C)(C)O2` [Example 10, (3S,4S)-6-Acetyl-4-[(3-chloro-4-fluorobenzene)amido]-2,2-dimethyl-3,4-dihydro-2H-1-benzopyran-3-yl 2-[(2S)-pyrrolidin-2-ylformamido]acetate], the inhibition at 11 µM at hERG K+ channel was determined as 32%. This compound also displayed a solubility in data set [1] (pH 4.2, aqueous buffer) of 500 µg/mL (≈ 916 µM).
Turning to `CC(=O)c1ccc2c(c1)[C@H](NC(=O)c1ccc(F)c(Cl)c1)[C@H](OC(=O)CNC(=O)[C@@H](N)CC(C)C)C(C)(C)O2.Cl` [Example 11, (3S,4S)-6-Acetyl-4-[(3-chloro-4-fluorobenzene)amido]-2,2-dimethyl-3,4-dihydro-2H-1-benzopyran-3-yl 2-[(2S)-2-amino-4-methylpentanamido]acetate hydrochloride], on hERG K+ channel, the inhibition at 11 µM came out at 34%. The solubility in data set [1] (aqueous buffer, pH 5.0) is more than 10000 µg/mL.
In the case of `CC(=O)c1ccc2c(c1)[C@H](NC(=O)c1ccc(F)c(Cl)c1)[C@H](OC(=O)CNC(=O)CN)C(C)(C)O2.Cl` [Example 12, (3S,4S)-6-Acetyl-4-[(3-chloro-4-fluorobenzene)amido]-2,2-dimethyl-3,4-dihydro-2H-1-benzopyran-3-yl 2-(2-aminoacetamido)acetate hydrochloride], 11 µM produced 43% inhibition against hERG K+ channel. This compound also returned a solubility in data set [1] (pH 5.1, aqueous buffer) of more than 10000 µg/mL.
Take `CC[C@H](C)[C@H](N)C(=O)NCC(=O)O[C@H]1[C@@H](NC(=O)c2ccc(F)c(Cl)c2)c2cc(C(C)=O)ccc2OC1(C)C.Cl` [Example 13, (3S,4S)-6-Acetyl-4-[(3-chloro-4-fluorobenzene)amido]-2,2-dimethyl-3,4-dihydro-2H-1-benzopyran-3-yl 2-[(2S,3S)-2-amino-3-methylpentanamido]acetate hydrochloride]: on hERG K+ channel, at 11 µM the inhibition was 2%. Further, in data set [1] (aqueous buffer, pH 5.0), the solubility was more than 10000 µg/mL.
For the compound `CC(=O)c1ccc2c(c1)[C@H](NC(=O)c1ccc(F)c(Cl)c1)[C@H](OC(=O)CNC(=O)[C@@H](N)C(C)C)C(C)(C)O2.Cl` [Example 14, (3S,4S)-6-Acetyl-4-[(3-chloro-4-fluorobenzene)amido]-2,2-dimethyl-3,4-dihydro-2H-1-benzopyran-3-yl 2-[(2S)-2-amino-3-methylbutanamido]acetate hydrochloride], the inhibition at 11 µM at hERG K+ channel amounted to 14%. This compound showed a solubility in data set [1] (pH 5.5, aqueous buffer) of more than 10000 µg/mL.
Take `CC(=O)c1ccc2c(c1)[C@H](NC(=O)c1ccc(F)c(Cl)c1)[C@H](OC(=O)[C@@H](NC(=O)[C@@H](N)C(C)C)C(C)C)C(C)(C)O2.Cl` [Example 15, (3S,4S)-6-Acetyl-4-[(3-chloro-4-fluorobenzene)amido]-2,2-dimethyl-3,4-dihydro-2H-1-benzopyran-3-yl (2S)-2-[(2S)-2-amino-3-methylbutanamido]-3-methylbutanoate hydrochloride]: the inhibition at 11 µM against hERG K+ channel was found to be 21%. In addition, the solubility in data set [1] (pH 4.5, aqueous buffer) was more than 10000 µg/mL.
Turning to `CC(=O)c1ccc2c(c1)[C@H](NC(=O)c1ccc(F)c(Cl)c1)[C@H](OC(=O)[C@@H](NC(=O)CN)C(C)C)C(C)(C)O2.Cl` [Example 16, (3S,4S)-6-Acetyl-4-[(3-chloro-4-fluorobenzene)amido]-2,2-dimethyl-3,4-dihydro-2H-1-benzopyran-3-yl (2S)-2-(2-aminoacetamido)-3-methylbutanoate hydrochloride], the solubility in data set [1] (pH 4.4, aqueous buffer) came to 1000 µg/mL.
With `CC(=O)c1ccc2c(c1)[C@H](NC(=O)c1ccc(F)c(Cl)c1)[C@H](OC(=O)CCCN1CCOCC1)C(C)(C)O2.Cl` [Example 17, (3S,4S)-6-Acetyl-4-[(3-chloro-4-fluorobenzene)amido]-2,2-dimethyl-3,4-dihydro-2H-1-benzopyran-3-yl 4-(morpholin-4-yl)butanoate hydrochloride], the inhibition at 11 µM against hERG K+ channel came to 27%. In data set [1] (pH 5.7, aqueous buffer), the solubility worked out at 1000 µg/mL.
Take `CC(=O)c1ccc2c(c1)[C@H](NC(=O)c1ccc(F)c(Cl)c1)[C@H](OC(=O)[C@H](C)NC(=O)[C@@H](N)C(C)C)C(C)(C)O2.Cl` [Example 20, (3S,4S)-6-Acetyl-4-[(3-chloro-4-fluorobenzene)amido]-2,2-dimethyl-3,4-dihydro-2H-1-benzopyran-3-yl (2S)-2-[(2S)-2-amino-3-methylbutanamido]propanoate hydrochloride]: in data set [1] (pH 5.6, aqueous buffer), the solubility was more than 10000 µg/mL.
`CC(=O)c1ccc2c(c1)[C@H](NC(=O)c1ccc(F)c(Cl)c1)[C@H](OC(=O)[C@H](C)NC(=O)[C@@H](N)CC(C)C)C(C)(C)O2.Cl` [Example 21, 6-Acetyl-4-[(3-chloro-4-fluorobenzene)amido]-2,2-dimethyl-3,4-dihydro-2H-1-benzopyran-3-yl (2S)-2-[(2S)-2-amino-4-methylpentanamido]propanoate hydrochloride]: in data set [1] (pH 5.2, aqueous buffer), the solubility is more than 10000 µg/mL.
With `CC(=O)c1ccc2c(c1)[C@H](NC(=O)c1ccc(F)c(Cl)c1)[C@H](OC(=O)[C@H](C)N(C)C(=O)[C@@H](N)C(C)C)C(C)(C)O2.Cl` [Example 29, 6-Acetyl-4-[(3-chloro-4-fluorobenzene)amido]-2,2-dimethyl-3,4-dihydro-2H-1-benzopyran-3-yl (2S)-2-[(2S)-2-amino-N,3-dimethylbutanamido]propanoate hydrochloride], the solubility in data set [1] (pH 5.3, aqueous buffer) is more than 10000 µg/mL.
